Values of other authors as cited in patent US8653051B2, “Use of 3-alpha-androstanediol in combination with a PDE5 inhibitor, in the treatment of sexual dysfunction” (Emotional Brain B.V., priority 2006, dated 2014).

Settings: typical value after administration

## CCCc1nc(C)c2c(=O)nc(-c3cc(S(=O)(=O)N4CCN(CC)CC4)ccc3OCC)[nH]n12.Cl [vardenafil, piperazine, 1-[[3-(1,4-dihydro-5-methyl-4-oxo-7-propylimidazo[5,1-f][1,2,4]triazin-2-yl)-4-ethoxyphenyl]sulfonyl]-4-ethyl-, monohydrochloride]
  time to reach peak plasma concentration after administration: about 1 hour
